Laboratory results published in ChEMBL document CHEMBL1201862, “PubChem BioAssay data set” (2004).
Calls of active or inactive are those of the source.

Legend:
Format in all cases: functional
Protein skinhead-1 = target: T1, Protein skinhead-1 (Caenorhabditis elegans, UniProt P34707)
T1 sequence (P34707 whole entry): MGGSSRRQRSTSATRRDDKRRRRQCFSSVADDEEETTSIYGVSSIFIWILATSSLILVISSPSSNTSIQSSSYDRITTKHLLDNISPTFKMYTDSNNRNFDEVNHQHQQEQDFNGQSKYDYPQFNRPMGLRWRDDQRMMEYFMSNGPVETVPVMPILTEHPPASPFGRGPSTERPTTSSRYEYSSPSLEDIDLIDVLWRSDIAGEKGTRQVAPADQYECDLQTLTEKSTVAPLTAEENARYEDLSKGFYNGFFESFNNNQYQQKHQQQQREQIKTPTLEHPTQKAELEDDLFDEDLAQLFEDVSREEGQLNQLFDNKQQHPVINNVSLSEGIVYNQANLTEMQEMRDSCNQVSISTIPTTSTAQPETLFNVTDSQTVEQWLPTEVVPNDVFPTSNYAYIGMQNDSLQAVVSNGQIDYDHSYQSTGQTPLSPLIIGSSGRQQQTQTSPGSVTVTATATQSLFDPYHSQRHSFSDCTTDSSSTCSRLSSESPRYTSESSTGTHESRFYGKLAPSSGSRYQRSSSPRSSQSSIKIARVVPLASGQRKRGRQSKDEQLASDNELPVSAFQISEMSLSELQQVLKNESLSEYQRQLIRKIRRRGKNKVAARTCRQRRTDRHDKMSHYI

[1] = viability of PTEN-deleted HCT116 cells – cell-based, HCT116 PTEN knockout, dose response (AID 1047);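 note: HCT116 colon tumor cells with PTEN knocked out; cells exposed to compound for 60 hours before readout; potency for loss of cell viability measured by luminescence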
[2] = viability of HCT116 lacking mutant beta-catenin – cell-based, human colon tumor, dose response (AID 1045);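 note: HCT116 colon tumor cells with beta catenin knocked out; cells exposed to compound for 60 hours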
Caspase-3 = target: T2, Caspase-3 (Homo sapiens, UniProt P42574);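 note: Dose-response selectivity test against caspase-3 for candidate inhibitors of sentrin-specific proteases (SENPs)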
T2 sequence (P42574 whole entry): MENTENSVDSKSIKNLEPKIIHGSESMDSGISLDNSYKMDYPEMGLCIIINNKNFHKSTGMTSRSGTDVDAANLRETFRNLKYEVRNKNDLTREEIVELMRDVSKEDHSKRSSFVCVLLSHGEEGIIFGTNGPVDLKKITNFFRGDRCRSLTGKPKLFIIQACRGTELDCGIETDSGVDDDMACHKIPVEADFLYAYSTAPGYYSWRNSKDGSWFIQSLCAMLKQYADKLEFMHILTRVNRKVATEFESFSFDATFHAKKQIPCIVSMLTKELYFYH

[3] = target: T3, Sentrin-specific protease 7 (Homo sapiens, UniProt Q9BQF6);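 note: Luminescence-based dose-response confirmation of ultra-high-throughput screening hits, measuring inhibition of SENP7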
T3 sequence (Q9BQF6 whole entry): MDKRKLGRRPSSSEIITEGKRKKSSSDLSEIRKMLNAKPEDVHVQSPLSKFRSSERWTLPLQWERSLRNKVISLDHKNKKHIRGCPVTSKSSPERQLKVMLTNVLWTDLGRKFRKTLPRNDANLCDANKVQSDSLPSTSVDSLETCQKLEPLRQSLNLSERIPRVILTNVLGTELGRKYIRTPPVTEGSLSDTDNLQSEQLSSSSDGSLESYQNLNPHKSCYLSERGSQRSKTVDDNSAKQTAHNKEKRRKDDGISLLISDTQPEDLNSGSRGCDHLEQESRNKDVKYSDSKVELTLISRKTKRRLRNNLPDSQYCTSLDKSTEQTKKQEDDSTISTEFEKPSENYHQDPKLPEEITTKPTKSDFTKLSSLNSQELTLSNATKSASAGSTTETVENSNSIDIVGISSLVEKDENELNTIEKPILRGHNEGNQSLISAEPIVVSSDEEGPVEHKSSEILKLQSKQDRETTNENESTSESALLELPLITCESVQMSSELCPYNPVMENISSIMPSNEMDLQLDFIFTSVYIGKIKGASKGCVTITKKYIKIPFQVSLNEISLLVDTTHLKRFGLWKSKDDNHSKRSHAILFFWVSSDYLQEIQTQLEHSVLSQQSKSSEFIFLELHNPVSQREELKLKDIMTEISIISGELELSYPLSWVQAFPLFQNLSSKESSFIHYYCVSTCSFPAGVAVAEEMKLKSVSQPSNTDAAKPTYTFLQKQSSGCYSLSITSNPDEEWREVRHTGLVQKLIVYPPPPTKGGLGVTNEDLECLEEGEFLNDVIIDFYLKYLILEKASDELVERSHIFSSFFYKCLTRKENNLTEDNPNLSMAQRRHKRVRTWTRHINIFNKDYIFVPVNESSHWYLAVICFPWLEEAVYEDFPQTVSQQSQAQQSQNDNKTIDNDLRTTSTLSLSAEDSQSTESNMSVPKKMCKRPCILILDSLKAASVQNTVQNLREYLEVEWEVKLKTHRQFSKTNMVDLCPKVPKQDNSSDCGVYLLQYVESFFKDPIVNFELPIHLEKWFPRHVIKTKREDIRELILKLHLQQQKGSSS

[4] = target: T4, Sentrin-specific protease 8 (Homo sapiens, UniProt Q96LD8);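 note: luminescence read-out of SENP8 inhibition, dose-response confirmation following an ultra-high-throughput screen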
T4 sequence (Q96LD8 whole entry): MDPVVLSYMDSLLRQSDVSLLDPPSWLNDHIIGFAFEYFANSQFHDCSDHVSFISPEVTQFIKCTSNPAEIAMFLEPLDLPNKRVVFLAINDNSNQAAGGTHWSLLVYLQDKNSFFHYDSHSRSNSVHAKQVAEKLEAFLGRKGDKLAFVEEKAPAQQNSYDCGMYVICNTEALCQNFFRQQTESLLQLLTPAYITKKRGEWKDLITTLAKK

[5] = target: T5, Sentrin-specific protease 6 (Homo sapiens, UniProt Q9GZR1);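 note: Luminescence-based dose-response confirmatory assay of SENP6 inhibition, following up an ultra-high-throughput screen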
T5 sequence (Q9GZR1 whole entry): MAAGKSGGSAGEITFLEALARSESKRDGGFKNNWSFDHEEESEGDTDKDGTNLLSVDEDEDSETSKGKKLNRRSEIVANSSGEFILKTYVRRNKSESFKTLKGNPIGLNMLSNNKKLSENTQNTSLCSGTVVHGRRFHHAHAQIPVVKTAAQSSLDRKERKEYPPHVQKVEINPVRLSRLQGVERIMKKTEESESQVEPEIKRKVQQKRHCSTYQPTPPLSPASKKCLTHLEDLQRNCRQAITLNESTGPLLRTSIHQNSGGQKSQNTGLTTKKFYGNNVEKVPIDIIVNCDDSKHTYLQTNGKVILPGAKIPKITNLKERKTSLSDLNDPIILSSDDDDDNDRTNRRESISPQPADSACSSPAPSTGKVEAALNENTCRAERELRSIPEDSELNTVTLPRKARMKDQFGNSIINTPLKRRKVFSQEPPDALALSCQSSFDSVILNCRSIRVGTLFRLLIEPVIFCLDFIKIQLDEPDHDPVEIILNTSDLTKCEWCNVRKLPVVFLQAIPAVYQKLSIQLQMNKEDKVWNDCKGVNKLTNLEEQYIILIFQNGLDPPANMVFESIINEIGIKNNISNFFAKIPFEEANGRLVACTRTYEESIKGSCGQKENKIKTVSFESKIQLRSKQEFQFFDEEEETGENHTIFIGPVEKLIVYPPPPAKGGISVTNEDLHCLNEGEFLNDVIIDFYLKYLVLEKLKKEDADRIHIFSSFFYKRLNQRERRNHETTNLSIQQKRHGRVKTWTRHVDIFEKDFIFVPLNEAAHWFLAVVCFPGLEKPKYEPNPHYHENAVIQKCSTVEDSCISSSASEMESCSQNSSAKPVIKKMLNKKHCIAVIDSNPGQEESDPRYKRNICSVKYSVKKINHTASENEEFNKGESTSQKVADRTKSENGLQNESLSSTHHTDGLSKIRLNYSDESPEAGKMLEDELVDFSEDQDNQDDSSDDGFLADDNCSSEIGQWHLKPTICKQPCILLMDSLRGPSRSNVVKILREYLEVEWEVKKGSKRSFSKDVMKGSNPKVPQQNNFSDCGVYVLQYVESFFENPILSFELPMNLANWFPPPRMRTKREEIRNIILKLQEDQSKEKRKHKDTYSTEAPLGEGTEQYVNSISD

Protein RecA = target: T6, Protein RecA (Mycobacterium tuberculosis, UniProt P9WHJ3); assay: Fluorescence Cell-Free Homogeneous Dose Retest to Identify Inhibitors of RecA-Intein Splicing Activity. [Related pubchem assays (depositor defined):AID2097, AID2223, AID489010, AID492950]
T6 sequence (P9WHJ3 whole entry): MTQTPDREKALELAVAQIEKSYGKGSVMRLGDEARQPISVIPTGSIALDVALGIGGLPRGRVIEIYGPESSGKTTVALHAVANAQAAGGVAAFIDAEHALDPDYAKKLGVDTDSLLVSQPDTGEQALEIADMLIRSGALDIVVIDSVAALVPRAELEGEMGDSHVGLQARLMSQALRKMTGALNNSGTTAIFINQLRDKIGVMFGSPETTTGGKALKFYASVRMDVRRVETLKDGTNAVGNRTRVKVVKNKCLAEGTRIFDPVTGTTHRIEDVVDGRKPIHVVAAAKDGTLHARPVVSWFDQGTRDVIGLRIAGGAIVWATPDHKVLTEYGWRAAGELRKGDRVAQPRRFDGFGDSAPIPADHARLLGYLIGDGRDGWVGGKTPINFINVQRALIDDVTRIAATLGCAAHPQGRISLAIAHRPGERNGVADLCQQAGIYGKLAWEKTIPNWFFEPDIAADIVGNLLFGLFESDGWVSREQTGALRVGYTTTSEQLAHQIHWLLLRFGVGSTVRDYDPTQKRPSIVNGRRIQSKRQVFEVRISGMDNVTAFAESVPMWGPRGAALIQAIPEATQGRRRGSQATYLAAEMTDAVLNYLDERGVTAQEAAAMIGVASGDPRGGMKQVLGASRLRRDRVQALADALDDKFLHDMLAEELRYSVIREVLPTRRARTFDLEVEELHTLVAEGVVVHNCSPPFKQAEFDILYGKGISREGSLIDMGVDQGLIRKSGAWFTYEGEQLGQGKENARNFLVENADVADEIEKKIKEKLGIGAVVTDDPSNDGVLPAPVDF

[6] = target: T7, Replicative DNA helicase DnaB (Mycobacterium tuberculosis, UniProt P9WMR3); assay: DnaB intein splicing inhibitors, dose response, biochemical, cell-free fluorescence (AID 449749)
T7 sequence (P9WMR3 whole entry): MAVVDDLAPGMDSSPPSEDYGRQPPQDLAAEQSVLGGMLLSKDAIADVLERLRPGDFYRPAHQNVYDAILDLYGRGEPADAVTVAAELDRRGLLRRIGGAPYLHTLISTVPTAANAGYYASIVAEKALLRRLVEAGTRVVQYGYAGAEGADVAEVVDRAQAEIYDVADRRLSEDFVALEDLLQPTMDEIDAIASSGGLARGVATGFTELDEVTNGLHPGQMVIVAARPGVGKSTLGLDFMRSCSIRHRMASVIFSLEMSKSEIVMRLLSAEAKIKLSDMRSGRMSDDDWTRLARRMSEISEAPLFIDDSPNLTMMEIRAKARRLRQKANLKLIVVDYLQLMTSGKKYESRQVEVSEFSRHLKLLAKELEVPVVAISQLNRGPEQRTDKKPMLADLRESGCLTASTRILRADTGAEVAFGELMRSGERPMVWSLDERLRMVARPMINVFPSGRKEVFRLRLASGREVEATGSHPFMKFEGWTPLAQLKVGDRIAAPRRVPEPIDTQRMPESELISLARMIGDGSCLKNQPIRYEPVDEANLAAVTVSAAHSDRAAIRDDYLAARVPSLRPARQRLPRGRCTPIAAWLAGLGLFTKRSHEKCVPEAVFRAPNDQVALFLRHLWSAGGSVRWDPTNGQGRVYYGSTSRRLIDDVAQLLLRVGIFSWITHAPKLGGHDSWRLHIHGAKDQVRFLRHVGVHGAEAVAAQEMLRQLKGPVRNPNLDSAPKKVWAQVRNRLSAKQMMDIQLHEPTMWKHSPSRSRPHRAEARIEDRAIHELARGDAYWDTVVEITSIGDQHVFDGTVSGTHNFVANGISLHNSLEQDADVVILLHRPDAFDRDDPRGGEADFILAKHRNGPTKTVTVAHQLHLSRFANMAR

N=c1oc2ccccc2cc1-c1nc(-c2ccccc2)cs1
IC50 (Protein skinhead-1): > 100 µM (inactive)

CC(C)=CC(=O)Nc1nnc(-c2ccc(F)cc2)s1
EC50 [1]: 18.2 µM (active)
EC50 [2]: 13.8 µM (active)

Clc1ccsc1-c1csc(-c2cccnc2)n1
IC50 (Caspase-3): 19.4 µM (active)
IC50 (Protein skinhead-1): > 100 µM (inactive)
IC50 [3]: 6.3 µM (active)
IC50 [4]: 22.6 µM (active)
IC50 [5]: 11.3 µM (active)

COC(=O)c1ccc(-c2csc(NC(=O)c3ccc(S(=O)(=O)N4CCc5ccccc5C4)cc3)n2)cc1
EC50 [1]: 10.3 µM (active)
EC50 [2]: 10.2 µM (active)

O=C(CCN1CCN(S(=O)(=O)c2ccc(Cl)cc2)CC1)Nc1ccc(F)cc1
IC50 (Protein skinhead-1): > 100 µM (inactive)

CCOc1ccc(-c2nc(-c3cccnc3)no2)cc1
IC50 (Protein skinhead-1): 22.6 µM (active)

COc1cc2c(cc1OC)CN(c1nc(CN3CCOCC3)nc3sc4c(c13)CCCC4)CC2
EC50 [1]: 4.64 µM (active)
EC50 [2]: 6.69 µM (active)

CCc1c(C)nc2cc(-c3ccccc3)nn2c1O
IC50 (Protein skinhead-1): > 100 µM (inactive)

COc1ccc(-c2cc(C(=O)n3cnc4ccccc43)c3ccccc3n2)cc1
EC50 (Protein RecA): 3.72 µM (active)
IC50 (Protein skinhead-1): > 100 µM (inactive)
AC50 [6]: > 380 µM (inactive)

Clc1ccc(-c2nc(-c3ccncc3)no2)c(Cl)c1
IC50 (Protein skinhead-1): 6.36 µM (active)

CCN(CC)c1ccc(C2NC(=O)c3ccccc3N2)cc1 (stereo unspecified)
IC50 (Protein skinhead-1): > 100 µM (inactive)

O=C(O)c1ccc2ccc3ccccc3c2c1
IC50 (Protein skinhead-1): > 100 µM (inactive)
